According to paper PMC5404532, “Simplified Reversed Chloroquines To Overcome Malaria Resistance to Quinoline-Based Drugs” (Antimicrobial Agents and Chemotherapy, 2017):
Like-named read-outs stand apart in the source and are kept apart here.

What was measured:
[1] = test system: P. falciparum Dd2 (CQR); assay: Inhibition of P. falciparum growth, CQR Dd2 (SYBR green I fluorescence); assay type: cell-based
Description: (§1) Inhibition of P. falciparum growth.
(§2) CQS (D6) and CQR (Dd2 and 7G8) P. falciparum maintained continuously in culture were used ([38]). […] The fluorescence readings were plotted against log(drug), and the IC50s were obtained from curve fitting performed by nonlinear regression using either Prism (GraphPad) or Excel (Microsoft) software.

[2] = test system: P. falciparum 7G8 (CQR); assay: Inhibition of P. falciparum growth, CQR 7G8 (SYBR green I fluorescence); assay type: cell-based, Plasmodium falciparum
Description: as §1, §2

[3] = test system: P. yoelii; assay: In vivo 3-day suppressive test against P. yoelii in a murine malaria model; design: species or system Plasmodium yoelii; details: mice, oral gavage, 3 daily doses, water-soluble hydrochloride or phosphate salts; errors estimated ±20%
Method: A selection of the compounds (compounds 9, 10, 12, 21, 23, and 24) was tested in vivo against P. yoelii in a murine malaria model. The compounds were first converted to water-soluble hydrochloride or phosphate salts for administration in aqueous solution. Efficacy testing was carried out using 4 different dose levels with 5 mice at each level, administered by oral gavage. […] A single-dose toxicity evaluation was also performed, using 1 or 2 mice in each case. The doses were limited by water solubilities.
In vivo 3-day suppressive test.
Female CF-1 mice, at 4 to 5 weeks of age, were injected intravenously with 10^6 erythrocytes infected with P. yoelii ([43][–][45]). The following day, and then daily for a total of 3 doses, 5 mice each were administered the appropriate dose of the compound by gavage and evaluated by direct microscopic analysis of Giemsa-stained blood smears ([46]) 1 day after the final dose. The Portland State University Institutional Animal Care and Use Committee approved the protocols involving animals used in this study.

[4] = test system: P. falciparum D6 (CQS); assay: Inhibition of P. falciparum growth, CQS D6 (SYBR green I fluorescence); assay type: cell-based
Description: as §1, §2

[5] = Single-dose toxicity evaluation in mice; assay type: in vivo; details: for Toxicity observation: single-dose experiments on 1 or 2 mice/compound, doses limited by water solubility
Method: The compounds were first converted to water-soluble hydrochloride or phosphate salts for administration in aqueous solution. Efficacy testing was carried out using 4 different dose levels with 5 mice at each level, administered by oral gavage. […] A single-dose toxicity evaluation was also performed, using 1 or 2 mice in each case.

[6] = In vitro heme binding (optical titration); details: 5 μM heme, phosphate buffer 100 mM, pH 5.7; read-out: heme binding dissociation constant (Kd)
Method: In vitro heme binding and β-hematin inhibition.
A 5 mM stock solution of heme was prepared by dissolving heme chloride in 0.1 mM NaOH by incubation at 37°C for 30 min. The solution was stored at 4°C for no more than 1 month. At the beginning of each experiment, the stock heme solution was diluted to 5 μM in phosphate buffer (100 mM, pH 5.7) and allowed to equilibrate for 4 h. The 4-h equilibration allowed for the initial heme absorbance to stabilize prior to beginning the titration. Optical titrations with each compound were performed by successive addition of aliquots of its stock solution to the 5 μM heme solution. […] Equilibrium binding constants were determined by nonlinear least-squares analysis ([39]).

[7] = test system: mouse spleen lymphocytes; assay: Cytotoxicity against mouse spleen lymphocytes; assay type: cell-based; details: estimated ±50%
[8] = test system: P. falciparum D6 (CQS); details: ref Burgess et al. (33); cited from earlier work
[9] = test system: mouse spleen lymphocytes; details: ref Burgess et al. (33); cited from earlier work
[10] = test system: P. falciparum Dd2 (CQR); details: ref Burgess et al. (33); cited from earlier work
[11] = Plasmodium falciparum, DD2, 72 h; read-out: IC50 (nM) for P. falciparum Dd2
[12] = Plasmodium falciparum, 7G8, 72 h, read-out: IC50 (nM) for P. falciparum 7G8
[13] = Plasmodium falciparum, D6, 72 h; read-out: IC50 (nM) for P. falciparum D6
[14] = Plasmodium falciparum, DD2; read-out: IC50 from dose-response curve against CQR Dd2 (Fig 4b)
[15] = Plasmodium falciparum, D6; read-out: IC50 from dose-response curve against CQS D6 (Fig 4a)

| Compound | IC50 [1, 11] | IC50 [2, 12] | IC50 [4, 13] | other results |
| --- | --- | --- | --- | --- |
| O=[N+]([O-])c1ccc(N2CCN(CCCNc3ccnc4cc(Cl)ccc34)CC2)nc1 [Compound 24, 7-Chloro-N-(3-(4-(5-nitropyridin-2-yl)piperazin-1-yl)propyl)quinolin-4-amine] | 0.5 nM | 0.5 nM | 0.3 nM | ED50 [3]: 3 mg/kg/day; Toxicity observation [5]: Well tolerated at 153 mg/kg^c |
| O=[N+]([O-])c1cnc(N2CCN(CCCNc3ccnc4cc(Cl)ccc34)CC2)c([N+](=O)[O-])c1 [Compound 26, 7-Chloro-N-(3-(4-(3,5-dinitropyridin-2-yl)piperazin-1-yl)propyl)quinolin-4-amine] | 0.9 nM | 0.9 nM | 0.5 nM |  |
| Clc1ccc2c(NCCCN3CCN(c4ccccc4)CC3)ccnc2c1 [Compound 9, 7-Chloro-N-(3-(4-phenylpiperazin-1-yl)propyl)quinolin-4-amine] | 0.7 nM | 0.6 nM | 0.4 nM | IC50 [1, 14]: 0.5 nM; Kd [6]: ~5000 nM; ED50 [3]: 2 mg/kg/day; IC50 [4, 15]: 0.5 nM; Cytotoxicity [7]: 6,400 nM; Toxicity observation [5]: Well tolerated at 300 mg/kg; dose without evident toxicity as multiple of the ED50 ([5]; single-dose toxicity screen in mice vs ED50 against P. yoelii): 150 fold |
| Clc1ccc(N2CCN(CCCNc3ccnc4cc(Cl)ccc34)CC2)cc1 [Compound 10, 7-Chloro-N-(3-(4-(4-chlorophenyl)piperazin-1-yl)propyl)quinolin-4-amine] | 0.5 nM | 0.1 nM | 0.3 nM | ED50 [3]: 8 mg/kg/day; Toxicity observation [5]: Death at 260 mg/kg, delayed death of 2/4 mice at 64 mg/kg |
| Clc1ccc2c(NCCCN3CCN(c4ccc(-c5ccccc5)cc4)CC3)ccnc2c1 [Compound 8, N-(3-(4-(Biphenyl-4-yl)piperazin-1-yl)propyl)-7-chloroquinolin-4-amine] | 0.9 nM | 0.2 nM | 0.6 nM | IC50 [1, 14]: 0.7 nM; IC50 [4, 15]: 0.7 nM; Cytotoxicity [7]: 2,200 nM |
| CCN(CC)CCCC(C)Nc1ccnc2cc(Cl)ccc12 (centres unmarked) [CQ, chloroquine] |  |  |  | IC50 ([1]; Plasmodium falciparum, DD2, 72 h, read-out: IC50 (nM) for P. falciparum Dd2): 102 nM; IC50 ([1]; Plasmodium falciparum, DD2, read-out: IC50 from dose-response curve against CQR Dd2 (Fig 4b)): 71.7 nM; IC50 ([2]; Plasmodium falciparum, 7G8, 72 h, read-out: IC50 (nM) for P. falciparum 7G8, CQR 7G8, 72 h, averages from at least 3 runs, normalized to CQ 108 nM, uncertainty ±15%): 106 nM; IC50 ([2]; read-out: IC50 (nM) for P. falciparum 7G8, CQR 7G8, 72 h, averages from at least 3 runs, normalized to CQ 108 nM, uncertainty ±15%): 108 nM; IC50 ([4]; Plasmodium falciparum, D6, 72 h, read-out: IC50 (nM) for P. falciparum D6): 6.9 nM; IC50 ([4]; Plasmodium falciparum, D6, read-out: IC50 from dose-response curve against CQS D6 (Fig 4a)): 7.9 nM |
| Clc1ccc2c(NCCCN3CCN(c4ccccn4)CC3)ccnc2c1 [Compound 21, 7-Chloro-N-(3-(4-(pyridin-2-yl)piperazin-1-yl)propyl)quinolin-4-amine] | 1.1 nM | 0.9 nM | 0.7 nM | ED50 [3]: 6 mg/kg/day; Cytotoxicity [7]: 13,300 nM; Toxicity observation [5]: Well tolerated at 435 mg/kg |
| Clc1ccc2c(NCCCN3CCNCC3)ccnc2c1 [Compound 16] |  |  |  | IC50 [8]: 4.3 nM; Cytotoxicity [9]: 23,000 nM; IC50 [10]: 6.8 nM |
| O=[N+]([O-])c1ccc(N2CCN(CCCNc3ccnc4cc(Cl)ccc34)CC2)c([N+](=O)[O-])c1 [Compound 27, 7-Chloro-N-(3-(4-(2,4-dinitrophenyl)piperazin-1-yl)propyl)quinolin-4-amine] | 0.5 nM | 0.4 nM | 0.3 nM |  |
| COc1ccc(N2CCN(CCCNc3ccnc4cc(Cl)ccc34)CC2)cc1 [Compound 12, 7-Chloro-N-(3-(4-(4-methoxyphenyl)piperazin-1-yl)propyl)quinolin-4-amine] | 0.3 nM | 0.3 nM | 1.3 nM | Kd [6]: ~5000 nM; ED50 [3]: 10 mg/kg/day; Toxicity observation [5]: Well tolerated at 500 mg/kg |
| Clc1ccc2c(NCCCN3CCN(c4cccc(-c5ccccc5)c4)CC3)ccnc2c1 [Compound 7, N-(3-(4-(Biphenyl-3-yl)piperazin-1-yl)propyl)-7-chloroquinolin-4-amine] | 1.8 nM |  | 0.9 nM | Cytotoxicity [7]: 2,100 nM |
| Clc1ccc2c(NCCCN3CCN(c4ccccc4-c4ccccc4)CC3)ccnc2c1 [Compound 6, N-(3-(4-(Biphenyl-2-yl)piperazin-1-yl)propyl)-7-chloroquinolin-4-amine] | 2.6 nM |  | 1.2 nM | Cytotoxicity [7]: 1,700 nM |

More lines, main results first:

| IC50 [1, 11] | IC50 [2, 12] | IC50 [4, 13] | Compound | other results |
| --- | --- | --- | --- | --- |
| 1.3 nM | 0.5 nM | 0.1 nM | Cc1ccc(N2CCN(CCCNc3ccnc4cc(Cl)ccc34)CC2)cc1 [Compound 15, 7-Chloro-N-(3-(4-p-tolylpiperazin-1-yl)propyl)quinolin-4-amine] |  |
| 7 nM | 7 nM | 4 nM | O=C(c1ccccc1)N1CCN(CCCNc2ccnc3cc(Cl)ccc23)CC1 [Compound 20, N-(3-(4-Benzoylpiperazin-1-yl)propyl)-7-chloroquinolin-4-amine] |  |
| 0.2 nM | 0.3 nM | 0.06 nM | FC(F)(F)c1ccc(N2CCN(CCCNc3ccnc4cc(Cl)ccc34)CC2)cc1 [Compound 13, 7-Chloro-N-(3-(4-(4-(trifluoromethyl)phenyl)piperazin-1-yl)propyl)quinolin-4-amine] | Kd [6]: ~5000 nM |
| 2.3 nM |  | 1.4 nM | Clc1ccc2c(NCCCN3CCN(c4ncccn4)CC3)ccnc2c1 [Compound 23, 7-Chloro-N-(3-(4-(pyrimidin-2-yl)piperazin-1-yl)propyl)quinolin-4-amine] | ED50 [3]: 7 mg/kg/day; Cytotoxicity [7]: 28,000 nM |
| 1.6 nM | 1.1 nM | 0.5 nM | Clc1ccc2c(NCCCN3CCN(c4ccncc4)CC3)ccnc2c1 [Compound 22, 7-Chloro-N-(3-(4-(pyridin-4-yl)piperazin-1-yl)propyl)quinolin-4-amine] |  |
| 7 nM | 9 nM | 2.4 nM | Clc1ccc2c(NCCCN3CCN(Cc4ccccc4)CC3)ccnc2c1 [Compound 17, N-(3-(4-Benzylpiperazin-1-yl)propyl)-7-chloroquinolin-4-amine] |  |
| 0.2 nM | 0.2 nM | 2 nM | Fc1ccc(N2CCN(CCCNc3ccnc4cc(Cl)ccc34)CC2)cc1 [Compound 11, 7-Chloro-N-(3-(4-(4-fluorophenyl)piperazin-1-yl)propyl)quinolin-4-amine] | Kd [6]: ~5000 nM |
| 0.9 nM | 1 nM | 0.5 nM | FC(F)(F)c1ccc(N2CCN(CCCNc3ccnc4cc(Cl)ccc34)CC2)nc1 [Compound 25, 7-Chloro-N-(3-(4-(5-(trifluoromethyl)pyridin-2-yl)piperazin-1-yl)propyl)quinolin-4-amine] |  |
| 1.1 nM | 0.8 nM | 1.1 nM | Clc1ccc2c(NCCCN3CCN(Cc4cccc5ccccc45)CC3)ccnc2c1 [Compound 19, 7-Chloro-N-(3-(4-(naphthalen-1-ylmethyl)piperazin-1-yl)propyl)quinolin-4-amine] |  |
| 0.8 nM | 0.3 nM | 0.9 nM | O=[N+]([O-])c1ccc(N2CCN(CCCNc3ccnc4cc(Cl)ccc34)CC2)cc1 [Compound 14, 7-Chloro-N-(3-(4-(4-nitrophenyl)piperazin-1-yl)propyl)quinolin-4-amine] |  |
| 1 nM | 1.2 nM | 0.5 nM | Clc1ccc2c(NCCCN3CCN(CCc4ccccc4)CC3)ccnc2c1 [Compound 18, 7-Chloro-N-(3-(4-phenethylpiperazin-1-yl)propyl)quinolin-4-amine] |  |
